According to patent US11142533B2, “Macrocycles for use in treating disease” (TURNING POINT THERAPEUTICS, INC., priority 2019, dated 2021):
Entries after “also recorded” stand apart in the source; their conditions may differ. Where two headings read alike, the source gives them in different places. Values belong to the compound of their own block, whether it stands above or below them.

Assays:
[1] = target: Ba/F3 cell-derived tumors with the EML4-ALK L1196M/G1202R fusion (Homo sapiens, UniProt Q9UM73, G1202R/L1196M)
KM12 (TPM3-TRKA) = KM12 (TPM3-TRKA) (Homo sapiens, UniProt P04629); test: Cell proliferation assay (CellTiter-Glo)
[2] = target: T1, ALK fusion protein in Ba/F3 cell-derived xenograft tumors with the EML4-ALK L1196M/G1202R fusion (Homo sapiens, UniProt Q9UM73, G1202R/L1196M); test: In vivo pharmacodynamic study, tumor immunoblotting; parameters: species or system mice; conditions: for ALK phosphorylation level compared to control: 0.6, 2, or 5 mg/kg
T1 construct: expressed in transfected cells; host or cells: Ba/F3 cells (lentiviral transduction), implanted subcutaneously in SCID/Beige mice; the other entry of the earlier key: EML4 (Q9HC35, Echinoderm microtubule-associated protein-like 4)
Protocol: Mice bearing xenograft tumors were humanely euthanized and tumors were resected and snap frozen in liquid nitrogen and stored at −80° C. Frozen tumor samples were processed at 4° C. in 1× Cell Lysis Buffer (Cell Signaling Technologies) to extract proteins. SDS loading samples were prepared by addition of 4×LDS Sample Buffer and 10× Reducing Reagent (Life Technologies, Inc) to protein lysate. Tumor SDS protein samples were processed by SDS-PAGE and immunoblotted with rabbit anti-phosphorylated ALK Y1282/1283, rabbit anti-phosphorylated ALK Y1604, rabbit anti-ALK and mouse anti-actin antibodies (Cell Signaling Technologies). The signals from immunoblot were detected by C-DiGit Blot Scanner from LI-COR and the signal intensity were quantified using the Image Studio Digit software (LI-COR).
As the control, the expression level of actin was not affected by Compound 1 treatment.

ALK (L1152R) = target: T2, ALK (L1152R) (Homo sapiens, UniProt Q9UM73, L1152R); test: Biochemical kinase assay (Reaction Biology); conditions: 10 μM ATP
T2 construct: purchased Reaction Biology Corporation (contract assay)

ALK (C1156Y) = target: T3, ALK (C1156Y) (Homo sapiens, UniProt Q9UM73, C1156Y); test: Biochemical kinase assay (Reaction Biology); conditions: 10 μM ATP
T3 construct: purchased Reaction Biology Corporation (contract assay)

ALK (F1174S) = target: T4, ALK (F1174S) (Homo sapiens, UniProt Q9UM73, F1174S); test: Biochemical kinase assay (Reaction Biology); conditions: 10 μM ATP
T4 construct: purchased Reaction Biology Corporation (contract assay)

ALK (S1206R) = target: T5, ALK (S1206R) (Homo sapiens, UniProt Q9UM73, S1206R); test: Biochemical kinase assay (Reaction Biology); conditions: 10 μM ATP
T5 construct: purchased Reaction Biology Corporation (contract assay)

ALK (L1152P) = target: T6, ALK (L1152P) (Homo sapiens, UniProt Q9UM73, L1152P); test: Biochemical kinase assay (Reaction Biology); conditions: 10 μM ATP
T6 construct: purchased Reaction Biology Corporation (contract assay)

ALK (G1202R) = target: T7, ALK (G1202R) (Homo sapiens, UniProt Q9UM73, G1202R); test: Biochemical kinase assay (Reaction Biology); conditions: 10 μM ATP
T7 construct: purchased Reaction Biology Corporation (contract assay)

ALK (I1171N) = target: T8, ALK (I1171N) (Homo sapiens, UniProt Q9UM73, I1171N); test: Biochemical kinase assay (Reaction Biology); conditions: 10 μM ATP
T8 construct: purchased Reaction Biology Corporation (contract assay)

ALK (L1198F/C1156Y) = target: T9, ALK (L1198F/C1156Y) (Homo sapiens, UniProt Q9UM73, C1156Y/L1198F); test: Biochemical kinase assay (Reaction Biology); conditions: 10 μM ATP
T9 construct: purchased Reaction Biology Corporation (contract assay)

ALK (L1198F/L1196M) = target: T10, ALK (L1198F/L1196M) (Homo sapiens, UniProt Q9UM73, L1196M/L1198F); test: Biochemical kinase assay (Reaction Biology); conditions: 10 μM ATP
T10 construct: purchased Reaction Biology Corporation (contract assay)

ALK (L1198F/G1202R) = target: T11, ALK (L1198F/G1202R) (Homo sapiens, UniProt Q9UM73, G1202R/L1198F); test: Biochemical kinase assay (Reaction Biology); conditions: 10 μM ATP
T11 construct: purchased Reaction Biology Corporation (contract assay)

ALK (G1269S) = target: T12, ALK (G1269S) (Homo sapiens, UniProt Q9UM73, G1269S); test: Biochemical kinase assay (Reaction Biology); conditions: 10 μM ATP
T12 construct: purchased Reaction Biology Corporation (contract assay)

ALK = target: T13, ALK (Homo sapiens, UniProt Q9UM73); test: Biochemical kinase assay (Reaction Biology); conditions: 10 μM ATP
T13 construct: purchased Reaction Biology Corporation (contract assay)

ALK (D1203N) = target: T14, ALK (D1203N) (Homo sapiens, UniProt Q9UM73, D1203N); test: Biochemical kinase assay (Reaction Biology); conditions: 10 μM ATP
T14 construct: purchased Reaction Biology Corporation (contract assay)

ALK (L1196M) = target: T15, ALK (L1196M) (Homo sapiens, UniProt Q9UM73, L1196M); test: Biochemical kinase assay (Reaction Biology); conditions: 10 μM ATP
T15 construct: purchased Reaction Biology Corporation (contract assay)

ALK (L1198F) = target: T16, ALK (L1198F) (Homo sapiens, UniProt Q9UM73, L1198F); test: Biochemical kinase assay (Reaction Biology); conditions: 10 μM ATP
T16 construct: purchased Reaction Biology Corporation (contract assay)

ALK (T1151M) = target: T17, ALK (T1151M) (Homo sapiens, UniProt Q9UM73, T1151M); test: Biochemical kinase assay (Reaction Biology); conditions: 10 μM ATP
T17 construct: purchased Reaction Biology Corporation (assay run there)

ALK (E1210K) = target: T18, ALK (E1210K) (Homo sapiens, UniProt Q9UM73, E1210K); test: Biochemical kinase assay (Reaction Biology); conditions: 10 μM ATP
T18 construct: purchased Reaction Biology Corporation (contract assay)

ALK (F1174C) = target: T19, ALK (F1174C) (Homo sapiens, UniProt Q9UM73, F1174C); test: Biochemical kinase assay (Reaction Biology); conditions: 10 μM ATP
T19 construct: purchased Reaction Biology Corporation (contract assay)

ALK (F1245C) = target: T20, ALK (F1245C) (Homo sapiens, UniProt Q9UM73, F1245C); test: Biochemical kinase assay (Reaction Biology); conditions: 10 μM ATP
T20 construct: purchased Reaction Biology Corporation (contract assay)

ALK (T1151-L1152insT) = target: T21, ALK (T1151-L1152insT) (Homo sapiens, UniProt Q9UM73, INS1151T); test: Biochemical kinase assay (Reaction Biology); conditions: 10 μM ATP
T21 construct: purchased Reaction Biology Corporation (contract assay)

ALK (E1210K/D1203N) = target: T22, ALK (E1210K/D1203N) (Homo sapiens, UniProt Q9UM73, D1203N/E1210K); test: Biochemical kinase assay (Reaction Biology); conditions: 10 μM ATP
T22 construct: purchased Reaction Biology Corporation (contract assay)

ALK (E1210K/S1206C) = target: T23, ALK (E1210K/S1206C) (Homo sapiens, UniProt Q9UM73, E1210K/S1206C); test: Biochemical kinase assay (Reaction Biology); conditions: 10 μM ATP
T23 construct: purchased Reaction Biology Corporation (contract assay)

ALK (R1275Q) = target: T24, ALK (R1275Q) (Homo sapiens, UniProt Q9UM73, R1275Q); test: Biochemical kinase assay (Reaction Biology); conditions: 10 μM ATP
T24 construct: purchased Reaction Biology Corporation (contract assay)

ALK (G1269A) = target: T25, ALK (G1269A) (Homo sapiens, UniProt Q9UM73, G1269A); test: Biochemical kinase assay (Reaction Biology); conditions: 10 μM ATP
T25 construct: purchased Reaction Biology Corporation (contract assay)

ALK (V1180L) = target: T26, ALK (V1180L) (Homo sapiens, UniProt Q9UM73, V1180L); test: Biochemical kinase assay (Reaction Biology); conditions: 10 μM ATP
T26 construct: purchased Reaction Biology Corporation (assay run there)

[3] = single oral dose 10 mg/kg, 2 hours post dose, tumor immunoblot, 10 mg/kg

Tumor growth inhibition (TGI) ([1]; 0.6 mg/kg BID, after 7 days of treatment): 19%
Tumor growth inhibition (TGI) ([1]; 2 mg/kg BID, after 7 days of treatment): 44%
Tumor growth inhibition (TGI) ([1]; 5 mg/kg BID, after 7 days of treatment): 83%
Tumor growth inhibition (TGI) ([1]; 10 mg/kg BID, after 7 days of treatment): 200%
tumor growth compared with vehicle treated group ([1]; Compound 1 0.6 mg/kg BID or lorlatinib 5 mg/kg BID, day 14, p>0.05): not significantly different
IC50 (KM12 (TPM3-TRKA)): < 0.2 nM
ALK phosphorylation level compared to control ([2]; each dose, at 2 hours): significantly reduced
level of ALK fusion expression vs vehicle [2, 3]: reduction; also recorded: reduced
Compound: CC1(C)COc2ccc(F)cc2CN2c3nc4c(cnn4cc3OC[C@H]2C(F)F)C(=O)N1 [Compound 1, (4S)-4-(Difluoromethyl)-8-fluoro-13,13-dimethyl-3,4,13,14-tetrahydro-6H-18,1-(metheno)[1,4]oxazino[3,4-i]pyrazolo[4,3-f][1,4,8,10]benzoxatriazacyclotridecin-15(12H)-one]
body weight ([1]; 2, 5, 10 mg/kg BID, after 7 days of treatment): no body weight loss
ALK phosphorylation level compared to control ([2]; at 12 hours): only showed reduction at 12 hours at the highest dose
level of phosphorylation of ALK fusions at Y1282/1283 vs vehicle [2, 3]: inhibition of phosphorylation; also recorded: reduced
level of phosphorylation of ALK fusions at Y1604 vs vehicle [2, 3]: inhibition of phosphorylation; also recorded: reduced

IC50 (ALK (L1152R)): 0.83 nM
IC50 (ALK (C1156Y)): 0.11 nM
IC50 (ALK (F1174S)): 0.76 nM
IC50 (ALK (S1206R)): 0.31 nM
IC50 (ALK (L1152P)): 1.96 nM
IC50 (ALK (G1202R)): 0.74 nM
IC50 (ALK (I1171N)): 1.16 nM
IC50 (ALK (L1198F/C1156Y)): 0.15 nM
IC50 (ALK (L1198F/L1196M)): 0.1 nM
IC50 (ALK (L1198F/G1202R)): 0.49 nM
IC50 (ALK (G1269S)): 6.14 nM
IC50 (ALK): 1.4 nM
IC50 (ALK (D1203N)): 2.9 nM
IC50 (ALK (L1196M)): 0.18 nM
IC50 (ALK (L1198F)): 0.85 nM
IC50 (ALK (T1151M)): 0.28 nM
IC50 (ALK (E1210K)): 0.21 nM
IC50 (KM12 (TPM3-TRKA)): < 0.2 nM
IC50 (ALK (F1174C)): 0.92 nM
IC50 (ALK (F1245C)): 0.41 nM
IC50 (ALK (T1151-L1152insT)): 0.86 nM
IC50 (ALK (E1210K/D1203N)): 4 nM
IC50 (ALK (E1210K/S1206C)): 0.13 nM
IC50 (ALK (R1275Q)): 0.72 nM
IC50 (ALK (G1269A)): 1.28 nM
IC50 (ALK (V1180L)): 0.51 nM
Compound: O=C1NCC2(CC2)COc2ccc(F)cc2CN2c3nc4c1cnn4cc3OC[C@H]2C(F)F [Compound 2, (16′S)-16′-(Difluoromethyl)-12′-fluoro-4′H,5′H,6′H,8′H,14′H,16′H,17′H-spiro[cyclopropane-1,7′-[1,19](metheno)[1,4]oxazino[3,4-j]pyrazolo[4,3-g][1,5,9,11]benzoxatriazacyclotetradecin]-4′-one]
